The record followed here is patent US20080207446A1, “Use of Phenylsemicarbazones for Seed Treatment” (BASF Aktiengesellschaft, priority 2005, published 2008).

Assay type in all cases: in vivo
Data set [1] concerns Psila rosae. The data set is described as follows: Short-term protection of carrots against Psila rosae by seed coating. Particulars: for Reduction of early damage by maggots: conclusion from Table 2. An excerpt:
In order to determine the efficacy of seed coating against dipteran larvae, carrot seeds were coated with two different concentrations of metaflumizone, Birlane™ or left untreated, then sowed and raised as described in Example 1. At day 35 after sowing, the plants were exposed to infestation by Psila rosae, which was monitored by adult trap catches. 300 to 400 insects per trap indicated fair infestation pressure. At days 35 and 91, respectively, 100 plants per field were examined for maggot infestation.
All test products were applied by seed coating of carrot seeds. Birlane™ was applied according to label recommendations for carrots. Metaflumizone was applied at 50 ml and 100 ml formulated product per seed unit, respectively. The assessments of carrot rooffly damage were conducted 35 and 91 daysafter sowing. Infestation was evaluated by assessing 100 carrot roots per treatment, and the number of infested plants was recorded. The figures included in the table show the percentage of damaged plants by treatment.

Data set [2] has as its system Psila rosae. Kind of data set: Effective dosage of metaflumizone on carrot seeds against Psila rosae. The source says:
In order to quantify the effect of metaflumizone against maggots, carrot seeds were coated with different concentrations of metaflumizone, with Birlane™ or left uncoated, then sowed and raised as described in the above Examples.

The test system of data set [3] is Psila rosae. The data set is described as follows: Long-term effect of carrot seed coating against Psila rosae. Particulars: for Percentage of plants infested with Psila rosae (long-term): carrot seed coating 100 ml/unit; for Persistence of the protective effect of seed treatment: carrot seed coating, conclusion from Table 3. On the procedure: The objective of this trial was the direct comparison of metaflumizone with the market standard Birlane™ at 100 ml product per unit of seed. Activity evaluation considered the residual activity of the products up to 124 days after application.
Carrot seeds were coated or left uncoated, sowed and raised as described in Example 2 and subjected to Psila rosae infestation at an approximate density of 300 to 400 insects per trap at days 46 to 53 after sowing. At days 82, 96, 110 and 124, respectively, 100 plants per field were examined for maggot infestation.

Data set [4] relates to carrot seeds. The data set is described as follows: Absence of phytotoxicity: sprouting of treated carrot seeds. Particulars: for Influence on the viability of carrot seeds: seed treatment, conclusion from Table 1. On the procedure: To determine the effect of seed treatment on the viability of seeds and sprouting plants, carrot seeds were either treated with metaflumizone, coated with the insecticide chlorfenvinphos (commercially available under, and herein referred to by, the name Birlane™) or left untreated, then sowed and raised under controlled environmental conditions. At day 20 and day 43, respectively, the percentage of seeds which had sprouted was assessed.

Data set [5] concerns Helix hortensis. The data set is described as follows: Greenhouse snail trial on sprayed lettuce. Particulars: lettuce sprayed with 240 g active ingredient per ha (240 g/l suspension concentrate). On the procedure:
For this example, a 240 g/l suspension concentrate of a compound I with R^1=trifluoromethyl in meta position, R^2=cyano in para position and R^3=trifluoromethoxy in para position was used with an application rate of 240 gram active ingredient per ha.
The trial was carried out in the greenhouse under practical conditions in sandy soil. Three lettuce plants, variety Filipo, growth stage 45-46, were used as plot size. The lettuce was sprayed with a solution of the above mentioned compound at a rate of 240 gram active ingredient per hectare with 500 l/ha water. For spraying was a single Teejet® nozzle, model 8002 (from Spraying System Mobile Systems Division, Wheaton, Ill., USA), at 3 atmosphere pressure used.
After the spray application, the plots were covered by net cages (diameter 40 cm) and 20 snails (sexually mature individuals of Helix hortensis) were added to every plot.
Also an estimation of eating damages was recorded.

The mark [6] stands for this setting: 4 days after placing the snails.

`N#Cc1ccc(CC(=NNC(=O)Nc2ccc(OC(F)(F)F)cc2)c2cccc(C(F)(F)F)c2)cc1` (racemic) [metaflumizone, 2-[2-(4-cyanophenyl)-1-[3-(trifluoromethyl)phenyl]ethylidene]-N-[4-(trifluoromethoxy)phenyl]hydrazinecarboxamide]: the “Percentage of plants infested with Psila rosae” value in data set [1] (carrot seed coating 50 ml/unit, Day 35 after sowing) is 3%; in data set [1] (carrot seed coating 50 ml/unit, Day 91 after sowing) it was 12%; in data set [1] (carrot seed coating 100 ml/unit, Day 35 after sowing) it was 7%; in data set [1] (carrot seed coating 100 ml/unit, Day 91 after sowing) it was 10%. In addition, in data set [1] (carrot seed coating), the “Reduction of early damage by maggots” value was “effective in reducing early damage by maggots”. The “Prevention of damage to seedlings compared with Birlane” value in data set [1] (carrot seed coating, during the first weeks) is recorded as “slightly more efficient than Birlane™”. In addition, the “Effective dosage of metaflumizone in the treatment of carrot seeds (percentage)” value (shortened to “Effective dosage of metaflumizone … (percentage)”) in data set [2] (25 ml/unit, Day 70) worked out at 2%; in data set [2] (25 ml/unit, Day 97), 33%; in data set [2] (25 ml/unit, Day 116) it was 73%; in data set [2] (50 ml/unit, Day 70) it was 1%; in data set [2] (50 ml/unit, Day 97), 24%; in data set [2] (50 ml/unit, Day 116) it was 61%. Further, the “Effective dosage of metaflumizone … (percentage)” value worked out at 0% in data set [2] (75 ml/unit, Day 70); 14% in data set [2] (75 ml/unit, Day 97); 55% in data set [2] (75 ml/unit, Day 116); 0% in data set [2] (100 ml/unit, Day 70); 29% in data set [2] (100 ml/unit, Day 97); 55% in data set [2] (100 ml/unit, Day 116). Besides, the “Percentage of plants infested with Psila rosae (long-term)” value in data set [3] (Day 82) is reported as 2%; in data set [3] (Day 96), 4%; in data set [3] (Day 110), 10%; in data set [3] (Day 124) it was 22%. Besides, in data set [3], the “Persistence of the protective effect of seed treatment” value is reported as “gradually wore off after 3-4 months”. In addition, the “Percentage of growing plants” value in data set [4] (carrot, in vivo, 20 day) is 42%; in data set [4] (carrot, in vivo, 43 day), 47%. Also, the “Influence on the viability of carrot seeds” value in data set [4] is given as “no significant influence”.

For `CCOP(=O)(OCC)O/C(=C\Cl)c1ccc(Cl)cc1Cl` [Birlane ™, chlorfenvinphos, reference compound], the “Percentage of plants infested with Psila rosae” value came to 9% in data set [1] (carrot seed coating according to label recommendations, Day 35 after sowing) and 12% in data set [1] (carrot seed coating according to label recommendations, Day 91 after sowing). Moreover, the “Reduction of early damage by maggots” value in data set [1] (carrot seed coating) is “effective in reducing early damage by maggots”. Moreover, the “Effective dosage of metaflumizone … (percentage)” value was determined as 0.1% in data set [2] (Birlane, dose not given, Day 70); 23% in data set [2] (Birlane, dose not given, Day 97); 61% in data set [2] (Birlane, dose not given, Day 116). In addition, the “Percentage of plants infested with Psila rosae (long-term)” value in data set [3] (Day 82) worked out at 0.5%; in data set [3] (Day 96) it was 2%; in data set [3] (Day 110), 8%; in data set [3] (Day 124), 11%. Further, in data set [3], the “Persistence of the protective effect of seed treatment” value was “gradually wore off after 3-4 months”. The “Percentage of growing plants” value is recorded as 52% in data set [4] (carrot seeds, Day 20, coated with Birlane) and 56% in data set [4] (carrot seeds, Day 43, coated with Birlane). Moreover, the “Influence on the viability of carrot seeds” value in data set [4] is reported as “no significant influence”.

Turning to `N#Cc1ccc(C/C(=N/NC(=O)Nc2ccc(OC(F)(F)F)cc2)c2cccc(C(F)(F)F)c2)cc1` [metaflumizone, 2-[2-(4-cyanophenyl)-1-[3-(trifluoromethyl)phenyl]ethylidene]-N-[4-(trifluoromethoxy)phenyl]hydrazinecarboxamide], the snails inactive in data set [5] (1 day after placing the snails) came out at 47%; in data set [5] (2 days after placing the snails), 63%. The snails dead in data set [5] (setting [6]) is recorded as 71%. In addition, the “snails inactive (further to the dead)” value in data set [5] (setting [6]) is reported as 12%.
